Laboratory results: patent US4791215A, “Derivatives of glutamic acid and aspartic acid” (priority 1984, dated 1988)

Columns and labels:
[1] = test system: tolerance induced by morphine; experiment: Antagonism to development of tolerance to repeated morphine HCl, Tail Flick Test (Experiment 5)
Description: Experiment No. 5: Antagonism of several products of the invention to the development of tolerance induced in rats by the repeated administration of morphine HCl.
Several of the compounds of the invention were examined to determine their possible capacity to antagonise the development of tolerance induced by morphine. Groups of 6 male rats having a weight of about 200-250 grams were used.
At intervals of 24 hours from the first treatment (time 0) each animal (except the control group treated physiologically) received 5 mg/kg of morphine hydrochloride i.p. together with 10 mg/kg i.p. of the compounds indicated (with the exception of the group treated solely with morphine).
The determination of the pain threshold was effected 15', 30', 45' and 60' from the treatment by the Tail Flick Test.

[2] = test system: CCK-8 induced contraction of guinea pig gall bladder; experiment: Anti-CCK activity on gall bladder strips in vitro; conditions: CCK-8 10 ng/ml
In short: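 CCK-8 at 10 ng/ml drove isometric contraction of guinea pig gall bladder strips held at 32 °C in oxygenated Krebs (O2/CO2 95:5). Antagonism was measured at graded compound concentrations and reported as ED50, in μg/ml, for 50% inhibition of the contraction.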

[3] = test system: morphine analgesia; experiment: Increase in analgesia of morphine, Tail Flick Test (Experiment 1); assay type: in vivo, rats; conditions: for M (10-90) ± SE, mean percentage variation of latency: mean 10-90 min
In short: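 Tail-flick latency to 75 °C radiant heat, capped at 8 s, measured in male non-fasted rats weighing 150-200 g. Percentage change per animal derived from pre-treatment baseline versus post-drug readings at 10-90 min (10, 20, 30, 45, 60, 90 min).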

CCCCN(CCCC)C(=O)CCC(NC(=O)c1ccc(C#N)cc1)C(=O)O [Compound D-8]
percentage variation in latency time (Effect %) ([1]; compound 10 mg/kg + morphine 5 mg/kg i.p., 24 h): 43.65%
percentage variation in latency time (Effect %) ([1]; compound 10 mg/kg + morphine 5 mg/kg i.p., 48 h): 32.80%
percentage variation in latency time (Effect %) ([1]; compound 10 mg/kg + morphine 5 mg/kg i.p., 72 h): 31.78%
percentage variation in latency time (Effect %) ([1]; compound 10 mg/kg + morphine 5 mg/kg i.p., 96 h): 35.45%
percentage variation in latency time (Effect %) ([1]; compound 10 mg/kg + morphine 5 mg/kg i.p., 120 h): 42.08%
percentage variation in latency time (Effect %) ([1]; compound 10 mg/kg + morphine 5 mg/kg i.p., 144 h): 29.33%
percentage variation in latency time (Effect %) ([1]; compound 10 mg/kg + morphine 5 mg/kg i.p., 168 h): 19.17%
percentage variation in latency time (Effect %) ([1]; compound 10 mg/kg + morphine 5 mg/kg i.p., time 0): 47.32%
ED50 (concentration antagonising 50% of contracting effect of CCK-8) [2]: > 200 µg/mL
percentage variation of latency of pain sensation ([3]; 10', compound 10 mg/kg i.p. + morphine 2 mg/kg): 29.0 ± 15.0%
percentage variation of latency of pain sensation ([3]; 20', compound 10 mg/kg i.p. + morphine 2 mg/kg): 50.9%
percentage variation of latency of pain sensation ([3]; 30', compound 10 mg/kg i.p. + morphine 2 mg/kg): 61.4 ± 22.0%
percentage variation of latency of pain sensation ([3]; 45', compound 10 mg/kg i.p. + morphine 2 mg/kg): 57.7 ± 18.0%
percentage variation of latency of pain sensation ([3]; 60', compound 10 mg/kg i.p. + morphine 2 mg/kg): 52.9 ± 20.0%
percentage variation of latency of pain sensation ([3]; 90', compound 10 mg/kg i.p. + morphine 2 mg/kg): 28.3 ± 12.0%
M (10-90) ± SE, mean percentage variation of latency ([3]; compound 10 mg/kg i.p. + morphine 2 mg/kg): 46.7 ± 14.4%
Power ratio with respect to morphine alone ([3]; rat, in vivo): 1.56

CN1CC[C@]23c4c5ccc(O)c4O[C@H]2[C@@H](O)C=C[C@H]3[C@H]1C5 [Morphine, reference compound]
day at which activity reaches level of inactivity (0) ([1]; from the straight lines of regression): fell to 0 on the sixth day of treatment
percentage variation in latency time (Effect %) ([1]; morphine 5 mg/kg i.p. alone, 24 h): 42.09%
percentage variation in latency time (Effect %) ([1]; morphine 5 mg/kg i.p. alone, 48 h): 26.54%
percentage variation in latency time (Effect %) ([1]; morphine 5 mg/kg i.p. alone, 72 h): 19.96%
percentage variation in latency time (Effect %) ([1]; morphine 5 mg/kg i.p. alone, 96 h): 10.79%
percentage variation in latency time (Effect %) ([1]; morphine 5 mg/kg i.p. alone, 120 h): 4.45%
percentage variation in latency time (Effect %) ([1]; morphine 5 mg/kg i.p. alone, 168 h): 2.12%
percentage variation in latency time (Effect %) ([1]; morphine 5 mg/kg i.p. alone, time 0): 58.03%
activity versus controls / morphine group during treatment ([1]; up to 168 hours): not significantly different from the control group
percentage variation of latency of pain sensation ([3]; 10', morphine 2 mg/kg alone): 10.8 ± 4.0%
percentage variation of latency of pain sensation ([3]; 10', morphine 2 mg/kg alone, listed as Morphene): 10.8%
percentage variation of latency of pain sensation ([3]; 20', morphine 2 mg/kg alone): 54.2 ± 17.0%
percentage variation of latency of pain sensation ([3]; 20', morphine 2 mg/kg alone, listed as Morphene): 54.2 ±17%
percentage variation of latency of pain sensation ([3]; 30', morphine 2 mg/kg alone): 46.6 ± 21.0%
percentage variation of latency of pain sensation ([3]; 30', morphine 2 mg/kg alone, listed as Morphene): 46.6 ± 21%
percentage variation of latency of pain sensation ([3]; 45', morphine 2 mg/kg alone): 41.7 ± 16.0%
percentage variation of latency of pain sensation ([3]; 45', morphine 2 mg/kg alone, listed as Morphene): 41.7%
percentage variation of latency of pain sensation ([3]; 60', morphine 2 mg/kg alone): 32.0%
percentage variation of latency of pain sensation ([3]; 60', morphine 2 mg/kg alone, listed as Morphene): 32 ± 17%
percentage variation of latency of pain sensation ([3]; 90', morphine 2 mg/kg alone): -6.4 ± 10.0%
percentage variation of latency of pain sensation ([3]; 90', morphine 2 mg/kg alone, listed as Morphene): -6.4 ± 10%
M (10-90) ± SE, mean percentage variation of latency ([3]; morphine 2 mg/kg alone): 29.8 ± 23.0%
M (10-90) ± SE, mean percentage variation of latency ([3]; morphine 2 mg/kg alone, listed as Morphene): 29.8%
